The values below come from patent EP0100673A2, “A method of enhancing neurofiber regrowth” (THE RESEARCH FOUNDATION OF STATE UNIVERSITY OF NEW YORK, priority 1982, dated 1984).

Assay [1] has as its system sciatic nerve. Put plainly: Counts of myelinated axons 5.0 mm distal to repair by light microscopy. Format: in vivo, rat. The note with it: treated nerves vs. control nerve. As for the experimental part:
(§1) lwenty raty art anenthetizve with sel rompun (0.5 cc total volume). The right sciatic nerve is exposed and severed with microneuroscissors, and subsequently repaired microsurgically with 6-8 circumferential microsutures using 10-0 nylon. Immediately following surgery the treated animals receive 12 mg/kg Ac leupeptin in 5% DMSO (dimethylsulphoxide) as a bath on their sciatic nerve, 0.25 cc. total volume. Then the treated animals are injected intramuscularly in right hindlimb with 0.25 cc of a solution containing 12 mg/kg Ac leupeptin in 5% DMSO. Control animals receive the same surgical treatment, but the bath and intramuscular injection consist only of the solvent and 5% DMSO.
(§2) Thereafter, treated animals are injected twice weekly in the operated hindlimb with 12 mg/kg Ac leupeptin in 5% DMSO (0.25 cc total volume) for periods of 1 week, 1 month, two months, three months - and six months. Control animals are injected with 0.25 cc of 5% DMSO twice weekly in the operated hindlimb for the same time period.
(§3) Two treated and two control animals are assigned to each of the stated time periods.
(§4) A ten mm. portion of the repaired sciatic nerve is excised from each animal. This is fixed in 3.0% glutaraldehyde in 0.1 M sodium cacodylate, pH 7.3, overnight for electron microscopy. After post-fixation in 1.0% osmium tetroxide, ethanol dehydration and embedding in Polybed 812, both thick (1 micron) and thin (500 A°) transverse sections are cut on a ultramicrotome. Portions of the excised muscles receive similar preparation for electron microscopy.
(§5) Thick sections of the sciatic nerve are placed on microscope slots stained with toluidine blue and photographed at a constant magnification in the light microscope. Thin sections of both nerve and muscles are placed on 300 mesh copper grid calm, stained with uranyl acetate and lead citrate and photographed using a Hitachi HU-12 electron microscope.

In assay [2] the test system is sciatic nerve. Put plainly: Counts of myelinated axons 5.0 mm proximal to repair by light microscopy. Format: in vivo, rat. As to conditions: all time periods, treated nerves compared to control. On the procedure: as §1, §2, §3, §4, §5
Assay [3] deals with sciatic nerve. Put plainly: Counts of myelinated and unmyelinated axons 5.0 mm distal to repair by electron microscopy. It counts as in vivo, rat. The note with it: ultrastructural data, up to and including 6 months of treatment. On the procedure:
as §1, §2, §3, §4, §5

Assay [4] has as its system neurofiber regrowth. Nature of the assay: Neurofiber regrowth after microsurgical neurorrhaphy (summary of tables I-V). It counts as in vivo, mammals. On the procedure:
as §1, §2, §3
All animals are sacrified by an overdose of pentobarbital, 1.0 cc total volume. […] Myofiber diameters are determined by photographing hematoxylin and eosin sections at a constant magnification in the light microscope. […]

Assay [5] concerns neurofiber regrowth. Put plainly: Effective dose based upon laboratory tests. The note with it: of mammalian weight, single or divided doses. It counts as in vivo, mammals. The source says: The exact dose to be administered is dependent upon the age, weight and particular conditions of the individual involved.
A further assay has as its target plasmin (Homo sapiens, UniProt P00747). The note with it: cited from earlier work.
In another assay the test system is kaleikrein. The note with it: cited from earlier work.
The subject of a further assay is thrombokinase. As to conditions: cited from earlier work.
Another assay concerns the target T1, papain (Carica papaya, UniProt P00784).
T1 sequence (P00784 134-345): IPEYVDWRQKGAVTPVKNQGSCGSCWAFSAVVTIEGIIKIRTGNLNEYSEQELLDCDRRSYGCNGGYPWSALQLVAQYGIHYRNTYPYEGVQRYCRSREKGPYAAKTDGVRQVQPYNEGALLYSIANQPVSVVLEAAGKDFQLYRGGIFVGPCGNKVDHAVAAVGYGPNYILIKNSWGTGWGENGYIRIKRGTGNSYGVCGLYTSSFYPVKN
As to conditions: cited from earlier work.

The subject of the next assay is cathespin B. As to conditions: in muscle, squid axoplasm and rat sciatic nerve; cited from earlier work.
The next assay relates to cathespin L. The note with it: in muscle, squid axoplasm and rat sciatic nerve; cited from earlier work.
The subject of assay [6] is calcium activated neutral protease. As to conditions: in muscle, squid axoplasm and rat sciatic nerve; cited from earlier work.
Assay [7] relates to chicken pectoralis muscle. The note with it: in vivo; cited from earlier work.
The test system of assay [8] is chicken and rat skeletal and fetal heart preparations. As to conditions: cited from earlier work.

Sequence of plasmin (P00747 97-810, species assumed): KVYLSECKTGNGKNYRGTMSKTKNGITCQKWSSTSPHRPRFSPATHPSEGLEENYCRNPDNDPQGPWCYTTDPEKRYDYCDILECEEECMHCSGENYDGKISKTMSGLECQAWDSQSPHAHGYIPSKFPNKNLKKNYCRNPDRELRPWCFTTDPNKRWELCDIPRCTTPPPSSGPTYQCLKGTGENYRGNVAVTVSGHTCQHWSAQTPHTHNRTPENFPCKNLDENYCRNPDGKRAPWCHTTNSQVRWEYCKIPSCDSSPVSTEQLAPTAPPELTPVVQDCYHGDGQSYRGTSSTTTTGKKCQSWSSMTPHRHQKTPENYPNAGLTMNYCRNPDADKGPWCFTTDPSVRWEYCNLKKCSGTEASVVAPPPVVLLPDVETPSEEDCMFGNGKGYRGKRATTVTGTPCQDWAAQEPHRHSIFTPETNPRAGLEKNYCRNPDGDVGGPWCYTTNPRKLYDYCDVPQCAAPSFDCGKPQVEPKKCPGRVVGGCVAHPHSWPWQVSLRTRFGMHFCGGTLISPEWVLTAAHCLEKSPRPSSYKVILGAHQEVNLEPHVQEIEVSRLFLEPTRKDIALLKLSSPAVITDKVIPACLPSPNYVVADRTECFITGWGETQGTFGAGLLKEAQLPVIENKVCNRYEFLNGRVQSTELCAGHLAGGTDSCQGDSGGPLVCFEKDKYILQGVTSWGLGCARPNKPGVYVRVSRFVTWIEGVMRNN

Consider `CC(=O)N[C@@H](CC(C)C)C(=O)N[C@@H](CC(C)C)C(=O)N[C@H](C=O)CCCNC(=N)N` [leupeptin], for which, in the assay with sciatic nerve [1], the “Wallerian degeneration distal to repair” value is “do not undergo as severe a form of Wallerian degeneration as the control nerve”. The “number of myelinated axons proximal to repair” value with sciatic nerve [2] was “significantly higher number of myelinated axons when compared to control”. Besides, in the assay with sciatic nerve [3], the “numbers of both myelinated and unmyelinated axons distal to the repair site” value is “increased numbers of both myelinated and unmyelinated axons”. Besides, the neurofiber regrowth result in the assay with neurofiber regrowth [4] was “significantly enhances neurofiber regrowth”. In addition, the ED50 (as a rule, the midpoint of the dose-response relation) in the assay with neurofiber regrowth [5] lay within 8 to 75 mg/kg. The inhibition of plasmin entry on plasmin is on record as “effective inhibitor”. In addition, the inhibition of kaleikrein result with kaleikrein is on record as “effective inhibitor”. Further, the inhibition of thrombokinase entry in the assay with thrombokinase was “effective inhibitor”. For the same compound, at papain, the inhibition of papain result is on record as “effective inhibitor”. In the assay on cathespin B, the “inhibition of cathespin B” value is recorded as “inhibited”. Besides, the “inhibition of cathespin L” value in the assay with cathespin L was “inhibited”. The “inhibition of calcium activated neutral protease” value in assay [6] was “inhibited”. The denervation induced atrophy result in assay [7] is listed as “successfully used in vivo as an inhibitor of denervation induced atrophy”. For the same compound, in assay [8], the protein degradation entry was “decreased protein degradation” and the protein synthesis entry is “no effect on protein synthesis”.
